In patent publication US8895611B1, “Cytotoxic compounds for treating cancer” (King Fahd University of Petroleum and Minerals, priority 2013, dated 2014):

How the values were obtained:
[1] = test system: human gastric cancer cells (SGC-7901); assay: MTT cell proliferation / cytotoxicity assay with trypan blue dye exclusion, SGC-7901 cells; type: cell-based; settings: for activity / inhibition against gastric cancer cells SGC-7901: after 24 and 72 hours of treatment, FIGS. 1A-3B
Description: (§1) In FIGS. 1A-3B, the cells were treated with a concentration of 10 μM of each compound.
(§2) The anti-proliferative effect was measured by MTT assay.
(§3) Six duplicate wells were set up for each sample, and cells untreated with a compound served as a control. Treatment was conducted at 24 and 72 hours, respectively. After incubation, 10 μL MTT (6 g/L, Sigma) was added to each well and the incubation was continued for 4 hours at 37° C. After removal of the medium, MTT stabilization solution (dimethylsulphoxide: ethanol=1:1) was added to each well, and shaken for ten minutes until all crystals were dissolved. Then, optical density was detected in a micro plate reader at 550 nm wavelength using an enzyme-linked immunosorbent assay (ELISA) reader. Each assay was performed in triplicate. Cell number and viability were determined by trypan blue dye exclusion analysis.
(§4) The cytotoxicity assay was performed with various concentrations of the synthesized gold (III) complexes on PC-3 and SGC-7901 cells.

[2] = test system: prostate cancer cells (PC-3); assay: MTT cell proliferation / cytotoxicity assay with trypan blue dye exclusion, PC-3 cells; type: cell-based, human; settings: for activity / inhibition against human prostate cancer cells (PC-3): after 24 and 72 hours of treatment, FIGS. 1A-3B
Description: as §1, §2, §3, §4

Compound	activity / inhibition against gastric cancer cells SGC-7901 ([1]; 10 μM)	activity / inhibition against human prostate cancer cells (PC-3) ([2]; 10 μM)	cytotoxic effect on SGC-7901 cells, compound 1 compared with compound 2 ([1]; 10 μM, one, two and three days, FIG. 7B)	cytotoxic effect on PC-3 cells, compound 1 compared with compound 2 ([2]; 10 μM, one, two and three days, FIG. 7A)	cell proliferation of PC-3 cells compared with SGC-7901 cells ([2]; fixed 10 μM, after 72 hours, FIGS. 1A and 1B)	bioactivity on SGC-7901 cells, trans-(1R,2R) compared with trans-(1S,2S) isomer ([1]; conclusion from FIGS. 1A-6B)	bioactivity on PC-3 cells, trans-(1R,2R) compared with trans-(1S,2S) isomer ([2]; conclusion from FIGS. 1A-6B)
trans-(±)-1,2-(DACH)AuCl3 [compound 2]	moderate inhibition	moderate inhibition					
cis-(±)-1,2-(DACH)AuCl3 [compound 1]	potentially high activity	potentially high activity	higher cytotoxic effect in comparison with the same concentration of compound 2	higher cytotoxic effect in comparison with the same concentration of compound 2	bit higher than that of the SGC-7901 cells		
N[C@H]1CCCC[C@@H]1N.[Cl][Au]([Cl])[Cl] [compound 3, (S,S)-(+)-1,2-(DACH)AuCl3]	moderate inhibition	moderate inhibition				no significant difference in the bioactivity	no significant difference in the bioactivity
